Measurements taken from the supplement of paper PMC10627819.
≈ marks a conversion by molar mass, not a printed value.

Key:
S. aureus DSM 20231 [1] = test system: S. aureus DSM 20231
S. aureus Newman [2] = test system: S. aureus Newman
S. pneumoniae D39V [3] = test system: S. pneumoniae D39V
B. subtilis 168 [4] = test system: B. subtilis 168
S. aureus DSM 20231 [5] = assay: fitness (endpoint OD595 vs no drug) (fraction); higher = more growth
Method in brief: (§1)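 Background-subtracted growth curves were the basis for fitness, taken as the optical density at entry into stationary phase over the robust mean of no-drug control wells. A cap of 1 was applied. The curves came from OD595 readings every 30 min for 14 h at 37 °C, in 384-well plates seeded at OD595 0.01 with 30 µl, or 55 µl for S. pneumoniae.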

S. aureus Newman [6] = assay: as above
Method in brief: as §1

S. pneumoniae D39V [7] = assay: as above
Method in brief: as §1

B. subtilis 168 [8] = assay: as above
Method in brief: as §1

COc1ccc(C[C@H](N)C(=O)N[C@H]2[C@@H](O)[C@H](n3cnc4c(N(C)C)ncnc43)O[C@@H]2CO)cc1 [Puromycin]
Details	MIC [µg/mL]
B. subtilis 168 [4]	1.56 (≈ 3.31 µM)
S. aureus DSM 20231 [1]	1.8 (≈ 3.82 µM)
S. aureus Newman [2]	1.8 (≈ 3.82 µM)
S. pneumoniae D39V [3]	12.5 (≈ 26.5 µM)

fitness
Details	0.39 µg/mL	0.78 µg/mL	1 µg/mL	1.56 µg/mL	2 µg/mL	4 µg/mL
B. subtilis 168 [8]	0.931	0.929	–	0.94	–	–
S. aureus DSM 20231 [5]	≥ 1	≥ 1	–	≥ 1	–	–
S. aureus Newman [6]	0.985	0.993	–	≥ 1	–	–
S. pneumoniae D39V [7]	–	–	≥ 1	–	0.977	0.76
